Assay results as given in DBAASP.
Values after ≈ are worked out from the molar mass of the structure shown.

Key:
Experiment in all cases: ≥ marks a high value that may be exact or a test limit, other limits are often not marked, values filed in µg/mL are converted to µM
[1] = test system: Micrococcus luteus ATCC 9341
[2] = test system: Bacillus anthracis Sterne 34F2
[3] = test system: Escherichia coli K91BK
[4] = test system: Bacillus subtilis var. niger ATCC 9372
[5] = test system: Cronobacter sakazakii DPC 6440
[6] = test system: Listeria monocytogenes LO28
[7] = test system: Staphylococcus aureus 90857
[8] = test system: Pectobacterium carotovorum subsp. carotovorum DSM 30168
[9] = test system: Clavibacter michiganensis subsp. michiganensis DSM 46294
[10] = test system: Pseudomonas syringae pv. tomato DC3000
[11] = test system: Pseudomonas syringae pv. syringae DSM 10604
[12] = test system: Pseudomonas corrugata DSM 7228
[13] = test system: Xanthomonas vesicatoria DSM 50861
[14] = test system: Staphylococcus aureus ATCC 25923
[15] = test system: Escherichia coli ATCC 25922
[16] = test system: Pseudomonas aeruginosa ATCC 15692
[17] = test system: Micrococcus luteus
[18] = test system: Saccharomyces cerevisiae
[19] = test system: Klebsiella pneumoniae
[20] = test system: Escherichia coli
[21] = test system: Enterococcus faecalis
[22] = test system: Pseudomonas aeruginosa
[23] = test system: Staphylococcus aureus
[24] = test system: Staphylococcus epidermidis
[25] = test system: Acinetobacter baumannii

## CC[C@H](C)[C@H](N)C(=O)N[C@@H](CC(C)C)C(=O)N1CCC[C@H]1C(=O)N[C@@H](C)C(=O)N[C@@H](CCCCN)C(=O)N[C@@H](Cc1c[nH]c2ccccc12)C(=O)N1CCC[C@H]1C(=O)N[C@@H](Cc1c[nH]c2ccccc12)C(=O)N[C@@H](Cc1c[nH]c2ccccc12)C(=O)N1CCC[C@H]1C(=O)N[C@@H](Cc1c[nH]c2ccccc12)C(=O)N[C@@H](CCCN=C(N)N)C(=O)N[C@@H](CCCN=C(N)N)C(N)=O [ILPAKWPWWPWRR]
[1]
  MIC: 0.4 µM (≈ 0.716 µg/mL)

## CC[C@H](C)[C@H](NC(=O)[C@H](CCCN=C(N)N)NC(=O)[C@H](CCCN=C(N)N)NC(=O)[C@H](CC(C)C)NC(=O)[C@H](CC(N)=O)NC(=O)[C@H](CCCCN)NC(C)=O)C(=O)N[C@H](C(=O)N[C@@H](CCCN=C(N)N)C(=O)N[C@@H](CCCCN)C(=O)N[C@H](C(=O)N[C@H](C(=O)N[C@@H](Cc1cnc[nH]1)C(=O)N[C@H](C(=O)N[C@H](C(=O)N[C@@H](CCCCN)C(=O)N[C@@H](CCCCN)C(=O)N[C@@H](Cc1ccc(O)cc1)C(=O)NCC(N)=O)[C@@H](C)CC)[C@@H](C)CC)[C@@H](C)CC)[C@@H](C)CC)[C@@H](C)O [KNLRRITRKIIHIIKKYG]
[2]
  MIC: 25 µM (≈ 57.3 µg/mL)
[3]
  MIC: ≥ 100 µM
[4]
  MIC: 1.56 µM (≈ 3.58 µg/mL)

## CC[C@H](C)[C@H](NC(=O)[C@@H](N)Cc1c[nH]c2ccccc12)C(=O)N[C@@H](CCC(N)=O)C(=O)N1CCC[C@H]1C(=O)N[C@@H](C)C(=O)N[C@H](C(=O)N[C@@H](CCCCN)C(=O)N[C@H](C(=O)N[C@H](C(=O)N1CCC[C@H]1C(=O)N[C@@H](Cc1ccc(O)cc1)C(=O)N[C@H](C(=O)N[C@@H](C)C(=O)N[C@@H](Cc1ccc(O)cc1)C(=O)N[C@@H](CC(C)C)C(=O)O)C(C)C)[C@@H](C)CC)C(C)C)[C@@H](C)O [WIQPATKVIPYVAYL]
[5]
  MIC: ≥ 625 µM
[6]
  MIC: ≥ 156 µM

## CC[C@H](C)[C@H](NC(=O)[C@H](CC(C)C)NC(=O)[C@H](CCCN=C(N)N)NC(=O)[C@H](CCCN=C(N)N)NC(=O)[C@H](CC(C)C)NC(=O)[C@@H](NC(=O)[C@H](CCCN=C(N)N)NC(=O)[C@H](CCCN=C(N)N)NC(=O)[C@@H](NC(=O)[C@@H](NC(=O)[C@H](CCCN=C(N)N)NC(=O)[C@@H](N)CC(C)C)[C@@H](C)CC)[C@@H](C)CC)[C@@H](C)CC)C(N)=O [LRIIRRILRRLI]
[7]
  MIC: 25 µM (≈ 39.8 µg/mL)
[8]
  MIC: 1.57 µM (≈ 2.5 µg/mL)
[9]
  MIC: 1.57 µM (≈ 2.5 µg/mL)
[10]
  MIC: 0.628 µM (≈ 0.999 µg/mL)
[11]
  MIC: 1.57 µM (≈ 2.5 µg/mL)
[12]
  MIC: 1.57 µM (≈ 2.5 µg/mL)
[13]
  MIC: 0.628 µM (≈ 0.999 µg/mL)

## CC[C@H](C)[C@H](NC(=O)[C@H](C)NC(=O)[C@H](CCCCN)NC(=O)[C@H](C)NC(=O)[C@H](C)NC(=O)[C@H](CCCCN)NC(=O)CNC(=O)[C@H](Cc1ccccc1)NC(=O)[C@H](C)NC(=O)[C@@H](NC(=O)CNC(=O)[C@H](C)NC(=O)[C@H](CCCCN)NC(=O)[C@@H](NC(=O)[C@H](C)NC(=O)[C@H](CCSC)NC(=O)CN)[C@@H](C)O)[C@@H](C)O)C(=O)N[C@H](C(=O)NCC(=O)N[C@@H](C)C(=O)N[C@@H](C)C(=O)N[C@@H](CC(C)C)C(=O)O)[C@@H](C)CC [GMATKAGTAFGKAAKAIIGAAL]
[14]
  MIC: > 256 µM
[15]
  MIC: 16 µM (≈ 32.3 µg/mL)
[16]
  MIC: ≥ 128 µM
[17]
  MIC: 2 µM (≈ 4.04 µg/mL)
[18]
  MIC: ≥ 64 µM

## CC[C@H](C)[C@H](NC(=O)[C@@H](NC(=O)[C@H](CCCCN)NC(=O)[C@H](CCCCN)NC(=O)[C@@H](NC(=O)[C@@H](NC(=O)[C@H](CCCCN)NC(=O)[C@H](C)NC(=O)[C@H](CCCCN)NC(=O)[C@H](CCCCN)NC(=O)[C@H](CCCCN)NC(=O)[C@@H](N)CCCN=C(N)N)[C@@H](C)CC)[C@@H](C)CC)[C@@H](C)CC)C(N)=O [RKKKAKIIKKII]
[7]
  MIC: ≥ 62.5 µM
[8]
  MIC: 6.82 µM (≈ 9.99 µg/mL)
[9]
  MIC: 6.82 µM (≈ 9.99 µg/mL)
[10]
  MIC: 6.82 µM (≈ 9.99 µg/mL)
[11]
  MIC: 0.682 µM (≈ 0.999 µg/mL)
[12]
  MIC: 6.82 µM (≈ 9.99 µg/mL)
[13]
  MIC: 6.82 µM (≈ 9.99 µg/mL)

## CC[C@H](C)[C@H](NC(=O)[C@@H](N)Cc1c[nH]c2ccccc12)C(=O)N[C@@H](CCC(N)=O)C(=O)N1CCC[C@H]1C(=O)N[C@@H](CCCCN)C(=O)N[C@H](C(=O)N[C@@H](CCCCN)C(=O)N[C@H](C(=O)N[C@H](C(=O)N1CCC[C@H]1C(=O)N[C@@H](Cc1ccc(O)cc1)C(=O)N[C@H](C(=O)N[C@@H](CCCN=C(N)N)C(=O)N[C@@H](Cc1ccc(O)cc1)C(=O)N[C@@H](CC(C)C)C(=O)O)C(C)C)[C@@H](C)CC)C(C)C)[C@@H](C)O [WIQPKTKVIPYVRYL]
[5]
  MIC: ≥ 78.1 µM
[6]
  MIC: ≥ 39.1 µM

## CC[C@H](C)[C@H](NC(=O)CNC(=O)[C@H](CCCN=C(N)N)NC(=O)[C@H](Cc1ccc(O)cc1)NC(=O)[C@H](CC(C)C)NC(=O)[C@H](Cc1cnc[nH]1)NC(=O)CNC(=O)[C@H](Cc1ccccc1)NC(=O)[C@@H](N)Cc1c[nH]c2ccccc12)C(=O)N[C@H](C(=O)N[C@@H](CO)C(=O)N[C@H](C(=O)N[C@H](C(=O)N[C@@H](CCCCN)C(=O)N[C@@H](Cc1cnc[nH]1)C(=O)N[C@H](C(=O)N[C@@H](Cc1cnc[nH]1)C(=O)NCC(=O)N[C@@H](CC(C)C)C(=O)N[C@@H](CC(C)C)C(=O)N[C@@H](CO)C(=O)NCC(=O)O)C(C)C)C(C)C)C(C)C)[C@@H](C)O [WFGHLYRGITSVVKHVHGLLSG]
[19]
  MIC: 21 µM (≈ 51.7 µg/mL)
[20]
  MIC: 5.2 µM (≈ 12.8 µg/mL)
[21]
  MIC: 10.3 µM (≈ 25.4 µg/mL)
[22]
  MIC: 10.3 µM (≈ 25.4 µg/mL)
[23]
  MIC: 20.6 µM (≈ 50.8 µg/mL)
[24]
  MIC: 10.3 µM (≈ 25.4 µg/mL)
[25]
  MIC: 5.2 µM (≈ 12.8 µg/mL)

## CC[C@H](C)[C@H](NC(=O)[C@H](CCCCN)NC(=O)[C@H](CO)NC(=O)[C@H](Cc1ccccc1)NC(=O)[C@H](CC(C)C)NC(=O)[C@H](CCCCN)NC(=O)[C@H](CCC(=O)O)NC(=O)[C@H](CC(C)C)NC(=O)[C@H](CCCN=C(N)N)NC(=O)[C@H](CCCCN)NC(=O)[C@H](Cc1ccccc1)NC(C)=O)C(=O)N[C@@H](Cc1c[nH]c2ccccc12)C(=O)N[C@@H](CC(N)=O)C(=O)N[C@@H](Cc1c[nH]c2ccccc12)C(=O)N[C@@H](CCCCN)C(N)=O [FKRLEKLFSKIWNWK]
[2]
  MIC: 14.9 µM (≈ 30.8 µg/mL)
[3]
  MIC: ≥ 100 µM
[4]
  MIC: 6.25 µM (≈ 12.9 µg/mL)

## CC[C@H](C)[C@H](NC(=O)[C@H](Cc1ccccc1)NC(=O)CNC(=O)[C@H](CCCCN)NC(=O)[C@H](C)NC(=O)[C@H](Cc1ccccc1)NC(=O)[C@H](CCCCN)NC(=O)[C@H](CCCCN)NC(=O)[C@H](C)NC(=O)[C@H](CO)NC(=O)[C@H](Cc1cnc[nH]1)NC(=O)[C@H](C)NC(=O)[C@@H](NC(=O)[C@H](CCC(=O)O)NC(=O)[C@H](CCCCN)NC(=O)[C@H](CC(C)C)NC(=O)CN)C(C)C)C(=O)N[C@@H](CO)C(=O)NCC(=O)N[C@@H](CC(C)C)C(=O)N[C@H](C(=O)NCC(=O)N[C@@H](CO)C(=O)O)[C@@H](C)O [GLKEVAHSAKKFAKGFISGLTGS]
[14]
  MIC: > 256 µM
[15]
  MIC: 64 µM (≈ 149 µg/mL)
[16]
  MIC: ≥ 256 µM
[17]
  MIC: ≥ 32 µM
[18]
  MIC: ≥ 128 µM

## CC[C@H](C)[C@H](NC(=O)[C@H](CCCCN)NC(=O)[C@H](CCCCN)NC(=O)[C@H](CC(C)C)NC(=O)[C@H](CCCCN)NC(=O)[C@H](CCCN=C(N)N)NC(=O)[C@@H](N)CC(C)C)C(=O)N[C@@H](CC(C)C)C(=O)N[C@@H](CCCCN)C(=O)N[C@@H](CCCCN)C(=O)N[C@@H](CC(C)C)C(=O)N[C@@H](Cc1ccccc1)C(N)=O [LRKLKKILKKLF]
[7]
  MIC: 6.25 µM (≈ 9.54 µg/mL)
[8]
  MIC: 1.64 µM (≈ 2.5 µg/mL)
[9]
  MIC: 0.164 µM (≈ 0.25 µg/mL)
[10]
  MIC: 0.327 µM (≈ 0.5 µg/mL)
[11]
  MIC: 0.164 µM (≈ 0.25 µg/mL)
[12]
  MIC: 0.164 µM (≈ 0.25 µg/mL)
[13]
  MIC: 0.0654 µM (≈ 0.0999 µg/mL)

## CC(=O)N[C@@H](CCCCN)C(=O)N[C@@H](CC(C)C)C(=O)N[C@@H](Cc1c[nH]c2ccccc12)C(=O)N[C@@H](CCCCN)C(=O)N[C@@H](CCCCN)C(=O)N[C@@H](Cc1c[nH]c2ccccc12)C(=O)N[C@@H](CCCCN)C(=O)N[C@@H](CCCCN)C(=O)N[C@@H](Cc1c[nH]c2ccccc12)C(=O)N[C@@H](CC(C)C)C(=O)N[C@@H](CCCCN)C(N)=O [KLWKKWKKWLK]
[2]
  MIC: ≥ 100 µM
[3]
  MIC: ≥ 100 µM
[4]
  MIC: 6.25 µM (≈ 10.1 µg/mL)
